Experimental data reported in ChEMBL document CHEMBL1201862, “PubChem BioAssay data set” (2004).
Activity calls are given as the source filed them.

How the values were obtained:
[1] = target: T1, Runt-related transcription factor 1/Core-binding factor subunit beta (Homo sapiens, UniProt Q01196+Q13951); assay: inhibitors of RUNX1 Runt–CBFb-SMMHC binding, primary screen, biochemical, FRET, Cerulean-Runt, Venus-CBFb-SMMHC, uHTS (AID 1434); type: protein assay;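 further: partner is the CBFb-SMMHC leukemia fusion protein rather than wild-type CBFb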
[2] = cytotoxicity in KRAS-transformed pancreatic duct cells, primary screen, cell-based, fluorescence, HTS (AID 431); type: functional; details: Homo sapiens;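 further: cell line used: HPDE-C7K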
[3] = cytotoxicity in HPDE-C7 cells, cell-based, fluorescence, HTS (AID 430); type: functional; details: Homo sapiens
[4] = target: T1, Runt-related transcription factor 1/Core-binding factor subunit beta; assay: inhibitors of RUNX1 Runt–CBFb-SMMHC binding, biochemical, TR-FRET (AID 1438); type: protein assay
Estrogen receptor = target: T2, Estrogen receptor (Homo sapiens, UniProt P03372);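 further: potency for inhibiting coactivator peptide recruitment to the receptor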
T2 sequence (P03372 whole entry): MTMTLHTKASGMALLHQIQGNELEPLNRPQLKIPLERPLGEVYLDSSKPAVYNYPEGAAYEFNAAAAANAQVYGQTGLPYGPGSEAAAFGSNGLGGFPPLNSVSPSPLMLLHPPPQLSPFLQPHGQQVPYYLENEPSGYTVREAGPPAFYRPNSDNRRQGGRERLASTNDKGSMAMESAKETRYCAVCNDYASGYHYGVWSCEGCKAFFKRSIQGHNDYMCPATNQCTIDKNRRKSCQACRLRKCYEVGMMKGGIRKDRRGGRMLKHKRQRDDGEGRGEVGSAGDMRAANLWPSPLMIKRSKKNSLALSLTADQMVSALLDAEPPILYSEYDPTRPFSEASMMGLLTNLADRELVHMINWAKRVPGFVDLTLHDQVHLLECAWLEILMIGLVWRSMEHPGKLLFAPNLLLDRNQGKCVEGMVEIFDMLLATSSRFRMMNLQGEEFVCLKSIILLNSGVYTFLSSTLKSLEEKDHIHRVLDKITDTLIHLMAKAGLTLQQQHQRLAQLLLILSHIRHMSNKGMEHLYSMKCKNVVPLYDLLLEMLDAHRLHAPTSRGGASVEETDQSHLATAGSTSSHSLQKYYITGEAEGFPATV

[5] = target: Alkaline phosphatase, placental type (Homo sapiens, UniProt P05187); assay: PLAP enzyme inhibitors, confirmation, biochemical, luminescence (AID 1512); type: functional
[6] = target: Glyceraldehyde-3-phosphate dehydrogenase (Homo sapiens, UniProt P04406)
[7] = target: T3, Alkaline phosphatase, tissue-nonspecific isozyme (Homo sapiens, UniProt P05186); assay: human TNAP enzyme inhibitors, SAR follow-up, biochemical, luminescent, dose response (AID 1056)
T3 sequence (P05186 whole entry): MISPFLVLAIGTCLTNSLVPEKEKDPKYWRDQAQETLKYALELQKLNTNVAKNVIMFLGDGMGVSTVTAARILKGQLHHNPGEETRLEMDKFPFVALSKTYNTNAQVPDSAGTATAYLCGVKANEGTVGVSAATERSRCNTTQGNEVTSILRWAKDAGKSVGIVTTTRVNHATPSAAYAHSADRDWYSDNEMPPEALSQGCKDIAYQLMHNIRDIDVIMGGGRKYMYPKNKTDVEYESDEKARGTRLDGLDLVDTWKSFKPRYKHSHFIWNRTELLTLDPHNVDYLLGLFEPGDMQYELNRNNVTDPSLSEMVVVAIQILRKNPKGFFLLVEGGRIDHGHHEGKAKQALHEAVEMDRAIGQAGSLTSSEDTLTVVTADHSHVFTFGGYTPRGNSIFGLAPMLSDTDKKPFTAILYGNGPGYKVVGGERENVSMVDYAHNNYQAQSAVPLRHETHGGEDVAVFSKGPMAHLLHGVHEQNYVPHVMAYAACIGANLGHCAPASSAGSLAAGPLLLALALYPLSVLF

[8] = inhibitors of intracellular T. cruzi replication, confirmation, NIH3T3 host cells, beta-gal luminescence (AID 2044); type: functional, cell-based;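 further: intracellular parasites grown in NIH/3T3 mouse fibroblasts as host cells; luminescent beta-galactosidase reporter signal from transgenic T. cruzi replicating inside host cells; inhibitors lower the luminescence signal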
[9] = control 3'UTR Renilla luciferase suppression, dose response, counter-screen for Shn3 inhibitor project, cell-based, Clone20-Shn3RL, cherry-picked (AID 624133); type: functional
[10] = cytotoxicity toward NIH3T3 fibroblasts, dose response, counter-screen, cell-based, ATP luminescence, mouse fibroblasts (AID 2010); type: functional;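 further: cells exposed to compound for about 90 hours before reading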
[11] = target: T4, Replicative DNA helicase DnaB (Mycobacterium tuberculosis, UniProt P9WMR3); assay: DnaB intein splicing inhibitors, dose response, biochemical, cell-free fluorescence (AID 449749); type: functional
T4 sequence (P9WMR3 whole entry): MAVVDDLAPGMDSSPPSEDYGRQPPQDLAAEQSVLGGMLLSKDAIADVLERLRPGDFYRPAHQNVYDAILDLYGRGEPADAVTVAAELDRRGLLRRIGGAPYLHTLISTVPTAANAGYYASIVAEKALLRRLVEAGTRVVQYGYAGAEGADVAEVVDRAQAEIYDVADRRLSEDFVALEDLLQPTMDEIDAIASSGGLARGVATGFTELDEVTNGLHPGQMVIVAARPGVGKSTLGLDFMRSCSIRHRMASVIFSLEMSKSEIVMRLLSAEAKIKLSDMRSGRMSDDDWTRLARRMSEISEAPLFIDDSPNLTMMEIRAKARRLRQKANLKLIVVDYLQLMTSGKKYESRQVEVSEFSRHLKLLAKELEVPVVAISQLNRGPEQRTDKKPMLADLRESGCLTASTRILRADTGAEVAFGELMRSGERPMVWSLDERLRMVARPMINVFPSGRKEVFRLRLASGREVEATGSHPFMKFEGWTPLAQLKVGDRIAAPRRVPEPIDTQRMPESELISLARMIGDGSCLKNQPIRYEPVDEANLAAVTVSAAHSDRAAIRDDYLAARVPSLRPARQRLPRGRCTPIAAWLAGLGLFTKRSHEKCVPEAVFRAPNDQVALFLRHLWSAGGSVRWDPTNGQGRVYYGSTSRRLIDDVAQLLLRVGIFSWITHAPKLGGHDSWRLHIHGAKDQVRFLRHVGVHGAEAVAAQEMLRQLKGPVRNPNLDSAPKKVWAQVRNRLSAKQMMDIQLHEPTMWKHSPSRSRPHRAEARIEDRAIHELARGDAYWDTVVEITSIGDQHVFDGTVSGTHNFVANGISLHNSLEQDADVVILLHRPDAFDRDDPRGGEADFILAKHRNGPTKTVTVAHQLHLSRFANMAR

[12] = Shn3 3'UTR reporter inhibitors, dose response, cell-based, Clone20 osteoblasts, firefly luciferase, cherry-picked (AID 624132); type: functional;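 further: firefly luciferase luminescence from reporter carrying the Shn3 3'UTR in osteoblasts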
Protein RecA = target: T5, Protein RecA (Mycobacterium tuberculosis, UniProt P9WHJ3); assay: Fluorescence Cell-Free Homogeneous Dose Retest to Identify Inhibitors of RecA-Intein Splicing Activity. [Related pubchem assays (depositor defined):AID2097, AID2223, AID489010, AID492950]; type: functional
T5 sequence (P9WHJ3 whole entry): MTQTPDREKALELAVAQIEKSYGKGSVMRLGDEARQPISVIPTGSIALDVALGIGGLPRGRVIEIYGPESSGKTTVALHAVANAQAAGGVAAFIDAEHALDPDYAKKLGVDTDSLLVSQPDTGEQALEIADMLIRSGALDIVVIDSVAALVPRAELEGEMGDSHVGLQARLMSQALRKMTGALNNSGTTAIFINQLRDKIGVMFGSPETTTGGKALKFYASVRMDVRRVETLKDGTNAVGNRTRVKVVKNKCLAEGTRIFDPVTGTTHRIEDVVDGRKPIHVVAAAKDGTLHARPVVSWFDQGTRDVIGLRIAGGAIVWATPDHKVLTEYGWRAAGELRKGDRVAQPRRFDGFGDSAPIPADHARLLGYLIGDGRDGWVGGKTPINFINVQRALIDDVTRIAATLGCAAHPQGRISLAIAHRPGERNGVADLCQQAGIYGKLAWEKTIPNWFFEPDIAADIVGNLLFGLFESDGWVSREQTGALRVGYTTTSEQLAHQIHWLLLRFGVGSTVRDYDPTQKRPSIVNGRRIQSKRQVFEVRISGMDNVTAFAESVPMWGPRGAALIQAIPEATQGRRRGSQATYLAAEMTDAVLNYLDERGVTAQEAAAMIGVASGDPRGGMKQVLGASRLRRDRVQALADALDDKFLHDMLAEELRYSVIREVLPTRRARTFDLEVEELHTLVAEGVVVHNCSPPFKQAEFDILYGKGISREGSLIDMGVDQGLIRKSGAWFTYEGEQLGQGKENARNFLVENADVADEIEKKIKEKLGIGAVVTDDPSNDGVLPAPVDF

[13] = target: Neurotensin receptor type 1 (Homo sapiens, UniProt P30989); type: functional;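 further: Image-based confirmatory dose-response assay measuring agonist activity at NTR1; NTR1-expressing U2OS osteosarcoma cells imaged for beta-arrestin GFP spot formation; agonist potency where compounds increase beta-arrestin recruitment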
[14] = Intein inhibitors as potential Tuberculosis drugs, a cytotoxicity screen. [Related pubchem assays (depositor defined):AID2221, AID2223, AID434968, AID435010, AID449749, AID449750, AID489010]; type: functional
[15] = target: DNA damage-inducible transcript 3 protein (Mus musculus, UniProt P35639); type: functional, Cricetulus griseus
[16] = HepG2 cell cytotoxicity, dose response, cytotoxicity control for Shn3 inhibitor project, CellTiter-Glo, cherry-picked (AID 624134); type: functional, cell-based
[17] = target: T6, Voltage-gated N-type calcium channel alpha-1B subunit/Amyloid beta A4 precursor protein-binding family A member 1 (Homo sapiens, UniProt Q00975+Q02410); type: protein assay
[18] = target: T6, Voltage-gated N-type calcium channel alpha-1B subunit/Amyloid beta A4 precursor protein-binding family A member 1; type: protein assay; remark: listed apart in the source
Ion channel NompC = Ion channel NompC (Danio rerio, UniProt Q7T1G6); assay: Dose response cell-based high-throughput screening assay for agonists of the transient receptor potential channel N1 (TRPN1). [Related pubchem assays (depositor defined):AID1424, AID1448]; type: functional
Mucolipin-3 = Mucolipin-3 (Homo sapiens, UniProt Q8TDD5); assay: Fluorescence counterscreen assay for […] agonists: dose response cell-based high-throughput screening assay to identify agonists of the transient receptor potential channel ML3 (TRPML3). [Related pubchem assays: 1424, 1448 ]; type: functional
Hexokinase = Hexokinase (Trypanosoma brucei, UniProt Q38C41); assay: Confirmation assay for inhibitors of Trypanosoma brucei hexokinase 1-Analogue-first series. [Related pubchem assays (depositor defined):AID1430, AID1632, AID2516, AID2560, AID2579, AID2600, AID449725, AID492951]; type: functional
[19] = target: T7, Eukaryotic translation initiation factor 4H (Homo sapiens, UniProt Q15056); assay: eIF4H inhibition in translation initiation, SAR follow-up (AID 435011); type: functional
[20] = target: T8, Polyadenylate-binding protein 1 (Homo sapiens, UniProt P11940); assay: PABP inhibition in translation initiation, SAR follow-up (AID 435018); type: functional
[21] = target: T8, Polyadenylate-binding protein 1; assay: PABP poly(A) RNA binding inhibitors, primary screen, biochemical, fluorescence polarization, uHTS (AID 2014)
[22] = target: T7, Eukaryotic translation initiation factor 4H; assay: human eIF4H binding inhibitors, primary screen, translation initiation inhibitor project, biochemical, uHTS, fluorescence polarization (AID 2012)
INS1 = assay: beta cell apoptosis inhibitors, cytokine rescue, dose response, luminescence, retest (AID 449756); type: functional, cell-based; details: Rattus norvegicus;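 further: cell death triggered by IL-1 beta plus TNF-alpha plus IFN-gamma mixture; protective hits raise ATP signal compared with cytokine alone wells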
Integrin alpha-4 = Integrin alpha-4 (Homo sapiens, UniProt P13612); assay: VLA-4 integrin allosteric ligands, SAR follow-up, cell-based, LIBS antibody binding, flow cytometry (AID 488791); type: functional
[23] = Luminescence Cell-Based Dose Retest to Confirm Inhibitors of Cancer Stem Cells. [Related pubchem assays (depositor defined):AID2717, AID2721]; type: functional; details: Homo sapiens
Melanocortin receptor 4 = Melanocortin receptor 4 (Homo sapiens, UniProt P32245); type: functional, cell-based;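 further: Cell-based assay with luminescence read-out, confirmatory dose-response testing for agonist activity of biased ligands at MC4R; human U2OS cells with tagged receptor and beta-arrestin; potency of agonists that increase receptor coupling to beta-arrestin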
[24] = target: T9, Ubiquitin-conjugating enzyme E2 N (Homo sapiens, UniProt P61088); type: functional;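 further: Dose-response confirmation in a TR-FRET assay detecting UBC13-driven polyubiquitin chain formation, inhibition measured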
T9 sequence (P61088 whole entry): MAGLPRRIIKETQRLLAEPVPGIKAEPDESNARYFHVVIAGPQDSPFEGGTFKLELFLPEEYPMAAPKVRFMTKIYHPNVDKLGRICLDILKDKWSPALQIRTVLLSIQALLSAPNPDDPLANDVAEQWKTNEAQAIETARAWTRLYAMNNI
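Wherever CC50 is given: cells exposed to compound for 72 hours before luminescence readout.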

T8 sequence (P11940 whole entry): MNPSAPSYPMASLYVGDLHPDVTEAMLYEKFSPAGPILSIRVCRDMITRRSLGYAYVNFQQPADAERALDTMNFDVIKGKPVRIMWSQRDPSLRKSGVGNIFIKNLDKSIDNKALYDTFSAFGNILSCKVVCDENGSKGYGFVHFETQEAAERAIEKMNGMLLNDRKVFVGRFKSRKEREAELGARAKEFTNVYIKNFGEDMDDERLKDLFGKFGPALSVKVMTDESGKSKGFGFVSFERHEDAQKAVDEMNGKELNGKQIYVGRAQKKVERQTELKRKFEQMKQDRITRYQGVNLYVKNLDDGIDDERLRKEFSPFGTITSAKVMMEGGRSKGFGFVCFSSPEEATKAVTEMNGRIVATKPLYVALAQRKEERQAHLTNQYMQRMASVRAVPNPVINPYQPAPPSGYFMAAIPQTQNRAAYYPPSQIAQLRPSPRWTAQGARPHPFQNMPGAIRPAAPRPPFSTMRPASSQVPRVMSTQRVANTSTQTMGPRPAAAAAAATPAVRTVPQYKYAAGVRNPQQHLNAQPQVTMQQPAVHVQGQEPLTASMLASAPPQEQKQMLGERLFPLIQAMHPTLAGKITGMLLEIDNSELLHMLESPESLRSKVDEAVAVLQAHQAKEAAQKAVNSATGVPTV
T1 sequence (Q01196 whole entry, the tested form may be a part): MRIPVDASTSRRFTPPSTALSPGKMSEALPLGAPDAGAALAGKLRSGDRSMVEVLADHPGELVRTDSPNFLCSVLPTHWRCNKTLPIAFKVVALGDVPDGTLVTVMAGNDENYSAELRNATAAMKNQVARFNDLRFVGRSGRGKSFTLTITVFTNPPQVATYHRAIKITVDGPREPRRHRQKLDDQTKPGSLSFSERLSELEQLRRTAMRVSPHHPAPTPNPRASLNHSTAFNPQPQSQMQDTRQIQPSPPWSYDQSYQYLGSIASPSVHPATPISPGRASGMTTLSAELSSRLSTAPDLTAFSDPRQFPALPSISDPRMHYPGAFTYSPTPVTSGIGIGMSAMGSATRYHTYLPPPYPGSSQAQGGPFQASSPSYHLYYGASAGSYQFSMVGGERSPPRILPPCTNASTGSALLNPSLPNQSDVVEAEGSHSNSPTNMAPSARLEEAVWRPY
T1 sequence (Q13951 whole entry, the tested form may be a part): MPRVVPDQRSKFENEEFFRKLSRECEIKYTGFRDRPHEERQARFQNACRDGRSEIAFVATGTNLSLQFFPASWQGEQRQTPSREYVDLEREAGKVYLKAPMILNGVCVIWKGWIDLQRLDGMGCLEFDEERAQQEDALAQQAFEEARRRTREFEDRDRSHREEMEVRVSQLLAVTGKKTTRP
T6 sequence (Q00975 whole entry): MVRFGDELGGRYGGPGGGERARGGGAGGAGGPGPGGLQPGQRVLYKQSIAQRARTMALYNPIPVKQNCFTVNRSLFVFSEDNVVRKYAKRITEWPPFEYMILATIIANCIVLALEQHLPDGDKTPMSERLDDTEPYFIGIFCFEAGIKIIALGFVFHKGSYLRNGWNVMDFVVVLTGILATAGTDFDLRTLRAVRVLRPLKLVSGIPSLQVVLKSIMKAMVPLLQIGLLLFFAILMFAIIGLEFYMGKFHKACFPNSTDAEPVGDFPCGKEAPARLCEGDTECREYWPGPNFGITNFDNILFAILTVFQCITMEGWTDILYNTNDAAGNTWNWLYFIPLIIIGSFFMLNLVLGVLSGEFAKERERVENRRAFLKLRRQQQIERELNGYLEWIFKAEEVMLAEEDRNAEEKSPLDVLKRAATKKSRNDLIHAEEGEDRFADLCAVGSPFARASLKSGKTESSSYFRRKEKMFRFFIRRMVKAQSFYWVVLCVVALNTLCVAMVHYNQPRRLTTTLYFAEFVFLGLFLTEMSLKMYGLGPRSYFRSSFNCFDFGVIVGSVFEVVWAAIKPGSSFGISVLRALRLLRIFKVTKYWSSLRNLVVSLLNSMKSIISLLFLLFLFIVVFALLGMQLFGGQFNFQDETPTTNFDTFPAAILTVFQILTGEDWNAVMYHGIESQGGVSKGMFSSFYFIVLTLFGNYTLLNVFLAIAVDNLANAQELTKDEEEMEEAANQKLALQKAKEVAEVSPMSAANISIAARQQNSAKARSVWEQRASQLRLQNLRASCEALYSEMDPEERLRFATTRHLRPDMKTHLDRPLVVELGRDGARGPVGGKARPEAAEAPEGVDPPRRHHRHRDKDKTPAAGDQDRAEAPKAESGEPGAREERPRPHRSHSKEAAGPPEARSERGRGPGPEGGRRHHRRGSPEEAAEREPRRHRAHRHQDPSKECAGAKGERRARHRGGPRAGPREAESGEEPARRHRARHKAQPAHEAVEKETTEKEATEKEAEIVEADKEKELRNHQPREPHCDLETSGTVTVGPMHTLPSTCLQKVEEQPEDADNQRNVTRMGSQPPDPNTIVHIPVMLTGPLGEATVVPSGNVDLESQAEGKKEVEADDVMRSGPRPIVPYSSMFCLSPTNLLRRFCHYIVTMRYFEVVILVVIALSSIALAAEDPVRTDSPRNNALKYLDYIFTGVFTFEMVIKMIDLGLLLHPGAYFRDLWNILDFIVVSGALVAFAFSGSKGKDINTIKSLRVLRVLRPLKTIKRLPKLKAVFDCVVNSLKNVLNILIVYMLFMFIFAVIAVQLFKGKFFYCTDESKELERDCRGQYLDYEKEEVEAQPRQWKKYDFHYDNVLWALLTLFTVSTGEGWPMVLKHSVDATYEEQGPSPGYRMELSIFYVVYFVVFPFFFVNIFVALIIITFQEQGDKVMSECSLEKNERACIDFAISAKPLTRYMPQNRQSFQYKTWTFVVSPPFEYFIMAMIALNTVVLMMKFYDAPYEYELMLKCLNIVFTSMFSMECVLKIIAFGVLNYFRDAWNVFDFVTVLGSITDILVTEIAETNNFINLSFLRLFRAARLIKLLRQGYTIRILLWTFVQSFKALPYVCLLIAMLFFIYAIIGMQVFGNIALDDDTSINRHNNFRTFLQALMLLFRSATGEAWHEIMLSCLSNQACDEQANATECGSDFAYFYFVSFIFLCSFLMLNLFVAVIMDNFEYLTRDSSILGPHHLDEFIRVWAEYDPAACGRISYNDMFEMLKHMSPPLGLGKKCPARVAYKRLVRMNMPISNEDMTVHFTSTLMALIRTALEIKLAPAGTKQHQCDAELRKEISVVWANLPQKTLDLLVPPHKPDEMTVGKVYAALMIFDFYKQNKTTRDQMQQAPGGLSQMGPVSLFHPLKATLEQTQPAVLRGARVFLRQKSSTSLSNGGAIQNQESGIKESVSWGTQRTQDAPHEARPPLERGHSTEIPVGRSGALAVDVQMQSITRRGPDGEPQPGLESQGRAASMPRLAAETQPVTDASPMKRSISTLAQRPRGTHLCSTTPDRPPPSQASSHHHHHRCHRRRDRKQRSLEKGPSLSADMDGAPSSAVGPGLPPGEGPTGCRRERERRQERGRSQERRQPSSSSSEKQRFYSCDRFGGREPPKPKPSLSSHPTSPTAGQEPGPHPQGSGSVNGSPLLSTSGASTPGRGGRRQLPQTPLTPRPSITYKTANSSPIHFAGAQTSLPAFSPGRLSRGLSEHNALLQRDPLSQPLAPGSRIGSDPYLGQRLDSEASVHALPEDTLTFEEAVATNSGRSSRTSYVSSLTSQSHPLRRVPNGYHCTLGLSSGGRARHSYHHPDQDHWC
T6 sequence (Q02410 whole entry): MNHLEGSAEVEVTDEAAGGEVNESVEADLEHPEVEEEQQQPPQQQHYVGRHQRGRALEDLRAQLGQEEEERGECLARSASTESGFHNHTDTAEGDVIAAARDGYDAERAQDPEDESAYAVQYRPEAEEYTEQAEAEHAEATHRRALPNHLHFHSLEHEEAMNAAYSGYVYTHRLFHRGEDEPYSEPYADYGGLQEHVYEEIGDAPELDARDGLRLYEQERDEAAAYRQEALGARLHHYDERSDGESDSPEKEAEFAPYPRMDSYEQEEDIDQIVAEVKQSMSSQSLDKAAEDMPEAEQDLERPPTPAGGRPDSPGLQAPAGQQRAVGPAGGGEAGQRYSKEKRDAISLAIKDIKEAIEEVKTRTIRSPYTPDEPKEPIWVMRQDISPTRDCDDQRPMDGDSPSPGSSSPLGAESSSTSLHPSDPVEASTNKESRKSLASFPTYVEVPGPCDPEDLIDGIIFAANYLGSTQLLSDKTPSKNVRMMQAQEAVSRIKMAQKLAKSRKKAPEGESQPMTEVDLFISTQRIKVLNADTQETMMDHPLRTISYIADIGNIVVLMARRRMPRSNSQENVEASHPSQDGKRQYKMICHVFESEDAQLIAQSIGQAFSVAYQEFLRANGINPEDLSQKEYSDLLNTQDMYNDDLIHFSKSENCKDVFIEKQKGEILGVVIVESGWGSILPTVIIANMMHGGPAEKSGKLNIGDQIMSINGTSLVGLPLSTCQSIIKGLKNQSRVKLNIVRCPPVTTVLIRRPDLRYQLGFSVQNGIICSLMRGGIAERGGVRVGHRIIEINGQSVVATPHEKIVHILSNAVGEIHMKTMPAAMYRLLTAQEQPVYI
Chain of Glyceraldehyde-3-phosphate dehydrogenase (P04406 whole entry): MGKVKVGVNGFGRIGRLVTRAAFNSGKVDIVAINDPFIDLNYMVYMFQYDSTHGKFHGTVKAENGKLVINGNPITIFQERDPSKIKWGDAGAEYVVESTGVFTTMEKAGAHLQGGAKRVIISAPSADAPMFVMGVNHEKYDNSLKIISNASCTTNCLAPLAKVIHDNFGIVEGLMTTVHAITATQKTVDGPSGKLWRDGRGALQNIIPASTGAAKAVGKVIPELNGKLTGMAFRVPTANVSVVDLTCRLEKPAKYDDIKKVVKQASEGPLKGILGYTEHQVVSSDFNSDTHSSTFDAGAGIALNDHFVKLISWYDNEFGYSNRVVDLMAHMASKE

N#Cc1c(NCCN)nc(NCc2ccccc2)c2c1CCN(Cc1ccccc1)C2
IC50 [1]: 4.57 µM (active) | EC50 [2]: > 20 µM (not active) | EC50 [3]: > 20 µM (not active) | IC50 [4]: 47.8 µM (active) | IC50 (Estrogen receptor): 11.8 µM (active)

O=C(CSc1n[nH]c(-c2ccccc2Cl)n1)Nc1ccccc1F
IC50 [5]: > 100 µM (inactive) | IC50 [6]: > 100 µM (not active) | IC50 [7]: 4.7 µM (active)

Cc1cc(Br)c2c(c1)/C(=C/C(=O)c1cccs1)C(=O)N2
EC50 [8]: 1.95 µM (active) | AC50 [9]: 20.7 µM (active) | EC50 [10]: > 60 µM (not active) | AC50 [11]: 2.46 µM (active) | AC50 [12]: 19.9 µM (active) | EC50 (Protein RecA): 3.27 µM (active) | EC50 [13]: 17.4 µM (active) | CC50 [14]: 18.4 µM (active) | Absolute IC50 (CHOP) [15]: 10 µM | AC50 [16]: 48.5 µM (active)

COc1cc(/C=C2\SC(=S)N(c3cccnc3)C2=O)ccc1O
IC50 [17]: > 50 µM (inactive) | IC50 [18]: 4.4 µM (active) | EC50 (Ion channel NompC): > 29.9 µM (inactive) | EC50 (Mucolipin-3): > 29.9 µM (not active)

Cn1c2ccccc2c(=O)n1-c1ccccc1
IC50 (Hexokinase): > 25 µM (inactive)

COC(=O)c1c(Sc2ccccc2)c2ccccc2n1C
IC50 [19]: 4.23 µM (active) | IC50 [20]: 13.8 µM (active) | IC50 [21]: 2.76 µM (active) | IC50 [22]: > 100 µM (inactive)

CN(C)CCOc1ccc(-c2c(-c3ccccc3)sc3ccccc23)cc1
AC50 (INS1): 6.82 µM (active) | EC50 (Integrin alpha-4): > 30 µM (inactive) | AC50 [23]: 2.93 µM (active) | EC50 (Melanocortin receptor 4): > 89.2 µM (inactive) | IC50 [24]: > 20 µM (inactive)
